Reference: patent publication US6596763B1, “Topical formulations containing as a therapeutic active agent fatty acids or fatty alcohols or monoglyceride derivatives thereof for treating of mucosa infections” (priority 1996, dated 2003)

Key:
C. trachomatis = assay: Inactivation of C. trachomatis; details: 37° C., 10 minutes
Enveloped viruses = details: virucidal activity in cell culture media; cited from earlier work
HSV-1 [1] = assay: Virucidal activity against HSV-1 in human semen; details: room temperature, 1 minute
HSV-1 [2] = assay: Virucidal activity against HSV-1 in culture medium (MM); format: cell-based, Herpes simplex virus type 1; details: room temperature, 1 minute
VV = assay: Virucidal activity against visna virus (VV) in culture medium (MM); format: cell-based; details: room temperature, 1 minute
Procedure: The lipids were dissolved in ethanol at a concentration of 1 M and stored at 4° C. In each experiment they were suspended in MM by vortexing at the highest speed for 1 min.

[3] = test system: vaginal mucosa of rabbits; details: rabbit, in vivo
HIV-1 = details: 25 mM, human plasma, 30 min; cited from earlier work
HIV-2 = details: 25 mM, human plasma, 30 min; cited from earlier work

CCCCCCCCCCCC(=O)OCC(O)CO (stereo not shown) [Lauric acid 1-monoglyceride, lauric acid 1-monoglyceride]
Reduction of IFU (log10) (C. trachomatis; monoglyceride 5 mM in medium): 0.5 log10 | Reduction of IFU (log10) (C. trachomatis; monoglyceride 10 mM in medium): 0.7 log10 | Reduction of IFU (log10) (C. trachomatis; monoglyceride 20 mM in medium): 0.5 log10 | more active than the corresponding free fatty acid (capric and lauric acids) (Enveloped viruses): 10 fold | Reduction of HSV-1 titer, log10 (HSV-1 [1]; monoglyceride 20 mM): 2.0 log10 | Reduction of virus titer,log10 HSV-1 (HSV-1 [2]; lipid 5 mM in MM): 3.0 log10 | Reduction of virus titer,log10 HSV-1 (HSV-1 [2]; lipid 10 mM in MM): 3.5 log10 | Reduction of virus titer,log10 HSV-1 (HSV-1 [2]; lipid 20 mM in MM): 3.1 log10

CCCCCCCC(=O)OCC(O)CO (stereo not shown) [Caprylic acid 1-monoglyceride, caprylic acid 1-monoglyceride]
Reduction of IFU (log10) (C. trachomatis; monoglyceride 5 mM in medium): 0.1 log10 | Reduction of IFU (log10) (C. trachomatis; monoglyceride 10 mM in medium): 0.3 log10 | Reduction of IFU (log10) (C. trachomatis; monoglyceride 20 mM in medium): 0.2 log10 | Reduction of HSV-1 titer, log10 (HSV-1 [1]; monoglyceride 20 mM): 1.0 log10 | Reduction of virus titer,log10 HSV-1 (HSV-1 [2]; lipid 10 mM in MM): 0 log10 | Reduction of virus titer,log10 HSV-1 (HSV-1 [2]; lipid 20 mM in MM): 0.5 log10

CCCCCCCC/C=C\CCCCCCCC(=O)O [Oleic acid, oleic acid]
Reduction of virus titer,log10 HSV-1 (HSV-1 [2]; lipid 10 mM in MM): <1.0 log10 | Reduction of virus titer,log10 HSV-1 (HSV-1 [2]; lipid 20 mM in MM): <1.0 log10

CCCCCCCC/C=C\CCCCCCCC(=O)OCC(O)CO (stereo not shown) [Oleic acid 1-monoglyceride, oleic acid 1-monoglyceride]
Reduction of virus titer,log10 HSV-1 (HSV-1 [2]; lipid 10 mM in MM): <1.0 log10 | Reduction of virus titer,log10 HSV-1 (HSV-1 [2]; lipid 20 mM in MM): <1.0 log10

CCCCCC/C=C\CCCCCCCC(=O)OCC(O)CO (stereo not shown) [Palmitoleic acid 1-monoglyceride, palmitoleic acid 1-monoglyceride]
Reduction of virus titer,log10 VV (VV; lipid 10 mM in MM): 0.7 log10 | Reduction of virus titer,log10 HSV-1 (HSV-1 [2]; lipid 10 mM in MM): 0 log10 | Reduction of virus titer,log10 HSV-1 (HSV-1 [2]; lipid 20 mM in MM): 0 log10

CC(O)CO (stereo not shown) [propylene glycol]
effects in the vaginal mucosa of rabbits (in words) [3]: toxic effects

CCCCCCCCCCCC(=O)O [Lauric acid, lauric acid]
Reduction of virus titer,log10 HSV-1 (HSV-1 [2]; lipid 10 mM in MM): <1.5 log10 | Reduction of virus titer,log10 HSV-1 (HSV-1 [2]; lipid 20 mM in MM): >5.8 log10

CCCCCCCCCCCCCC(=O)O [Myristic acid, myristic acid]
Reduction of virus titer,log10 HSV-1 (HSV-1 [2]; lipid 10 mM in MM): 0 log10 | Reduction of virus titer,log10 HSV-1 (HSV-1 [2]; lipid 20 mM in MM): 0 log10

CCCCCCCCOC[C@@H](O)CO [1-0-Octyl-SN-glycerol]
inactivated HIV-1 (HIV-1): more than 10^9 fold | inactivated HIV-2 (HIV-2): more than 10^9 fold

CCCCCCCCCC(=O)O [Capric acid, capric acid]
Reduction of virus titer,log10 HSV-1 (HSV-1 [2]; lipid 20 mM in MM): <0.5 log10

CCCCCCCCCC(=O)OCC(O)CO (stereo not shown) [Monocaprin, capric acid 1-monoglyceride]
Reduction of virus titer,log10 VV (VV; lipid 10 mM in MM): 2.4 log10 | Reduction of virus titer,log10 VV (VV; lipid 20 mM in MM): 3.8 log10 | Reduction of IFU (log10) (C. trachomatis; monoglyceride 5 mM in medium): >5.6 log10 | Reduction of IFU (log10) (C. trachomatis; monoglyceride 10 mM in medium): >5.6 log10 | Reduction of IFU (log10) (C. trachomatis; monoglyceride 20 mM in medium): >4.6 log10 | more active than the corresponding free fatty acid (capric and lauric acids) (Enveloped viruses): 10 fold | Reduction of HSV-1 titer, log10 (HSV-1 [1]; monoglyceride 10 mM): 3.0 log10 | Reduction of HSV-1 titer, log10 (HSV-1 [1]; monoglyceride 20 mM): >4.0 log10 | Reduction of virus titer,log10 HSV-1 (HSV-1 [2]; lipid 2.5 mM in MM): 2.2 log10 | Reduction of virus titer,log10 HSV-1 (HSV-1 [2]; lipid 5 mM in MM): >5.5 log10 | Reduction of virus titer,log10 HSV-1 (HSV-1 [2]; lipid 10 mM in MM): >5.3 log10 | Reduction of virus titer,log10 HSV-1 (HSV-1 [2]; lipid 20 mM in MM): >5.8 log10

CCCCCC/C=C\CCCCCCCC(=O)O [Palmitoleic acid, palmitoleic acid]
Reduction of virus titer,log10 HSV-1 (HSV-1 [2]; lipid 5 mM in MM): <1.0 log10 | Reduction of virus titer,log10 HSV-1 (HSV-1 [2]; lipid 10 mM in MM): >5.0 log10
